Patent US20150018296A1, “THERAPEUTIC METHODS AND COMPOSITIONS UTILIZING CYCLOHEXENONE COMPOUNDS” (Golden Biotechnology Corporation, priority 2013, published 2015)

What was measured:
[1] = test system: H838; experiment: CCK-8 cell viability assay; format: cell-based, human; conditions: 48 h treatment, mean ± S.E.M., wild-type Ras
Method: (§1) Human hepatoma (HepG2, Hep3B), human lung adenocarcinoma (A549, H838), and human myelogenous leukemia (K562) cell lines were obtained from American Type Culture Collection (Rockville, Md., USA). Human prostate cancer cell lines (LNCaP and DU145), human breast carcinoma (MCF-7), human bladder carcinoma (TSGH 8301) and human pancreas adenocarcinoma (BxPC-3) were obtained from BCRC (Bioresource Collection and Research Center, Hsinchu, Taiwan). HepG2, DU145 and MCF-7 cell lines were cultured in Minimum Essential Medium Alpha (Invitrogen/Gibco BRL, Grand Island, N.Y., USA). A549 cells were cultured in Dulbecco's modified Eagle's medium (Invitrogen/Gibco BRL). H838, TSGH 8301, BxPC-3 LNCaP and K562 cell lines were cultured in RPMI-1640 medium (Invitrogen/Gibco BRL). All cells were cultured at 37° C. in 5% CO2 in culture media supplemented with 10% fetal bovine serum (FBS) (Invitrogen/Gibco BRL) and 100 U/ml streptomycin and penicillin (Invitrogen/Gibco BRL). For treatment, cells were seeded in six-well plates at 6.25×10^5 cells/well. On the following day, the media was changed to serum-free media, and cells were serum-starved for 24 h. Compound 1 was dissolved in DMSO and diluted to the required concentration in serum-free medium. Cultures were then treated with diluted Compound 1 as indicated. After treatment, cells were washed with cold phosphate-buffered saline (PBS) and lysed using RIPA buffer containing phosphatase and protease inhibitors.
(§2) Cell Counting Kit-8 (CCK-8) allows sensitive colorimetric assays for the determination of cell viability in cell proliferation and cytotoxicity assays. The detection sensitivity of CCK-8 is higher than the other tetrazolium salts such as MTT, XTT, MTS or WST-1.
(§3) Cell viability was measured using Cell Counting Kit-8 (CCK-8, Enzo Life Sciences, Farmingdale, N.Y.). In this assay, WST-8 is reduced by dehydrogenases in cells to produce a yellow-colored product (formazan), which is soluble in culture medium. The amount of formazan generated is directly proportional to the number of living cells. After treatment, CCK-8 solution was added to each well and incubated for 4 h. The concentration of formazan was measured with a spectrophotometer at an absorbance wavelength of 450 nm. Cell viability was expressed as a percentage of the corresponding control.
(§4) To determine whether the cytotoxic effects of Compound 1 correlate with the presence of Ras mutations, cell lines derived from human lung cancer (A549 and H838), liver cancer (HepG2 and Hep3B), and leukemia (K562 and THP-1) with wild-type Ras (H838, Hep3B, and K562) or mutant Ras (A549, HepG2, and THP-1) were used. Cell viability was measured after 48 h of Compound 1 treatment.

[2] = test system: Hep3B; experiment: CCK-8 cell viability assay; format: cell-based; conditions: Homo sapiens, 48 h treatment, mean ± S.E.M., wild-type Ras
Method: as §1, §2, §3, §4

[3] = test system: A549; experiment: CCK-8 cell viability assay; format: cell-based; conditions: Homo sapiens, 48 h treatment, mean ± S.E.M., mutant Ras
Method: as §1, §2, §3, §4

[4] = test system: HepG2; experiment: CCK-8 cell viability assay; format: cell-based; conditions: Homo sapiens, 48 h treatment, mean ± S.E.M., mutant Ras
Method: as §1, §2, §3, §4

[5] = test system: THP-1; experiment: CCK-8 cell viability assay; format: cell-based; conditions: Homo sapiens, 48 h treatment, mean ± S.E.M., mutant Ras
Method: as §2, §3, §4

[6] = test system: K562; experiment: CCK-8 cell viability assay; format: cell-based; conditions: Homo sapiens, 48 h treatment, mean ± S.E.M., wild-type Ras
Method: as §1, §2, §3, §4

[7] = test system: Ras processing; experiment: Immunoblot of unprocessed and processed Ras in cancer cell lines; format: cell-based, human; conditions: H838 cells, competition assay, 24 h
Method: FIG. 2A-C show illustrative effective results of the exemplary Compound 1 inhibiting Ras processing in cancer cell lines. (2A) A549 and H838 cells were treated with different concentrations of Compound 1 and grown under serum (10% FBS) or serum-free (no FBS) conditions for 24 h. (2B) H838, (2C) HepG2 and K562 cells were treated with different concentrations of Compound 1 and grown under serum-free (no FBS) conditions for 24 h. Whole cell lysates were then immunoblotted with a Ras antibody. A duplicate membrane was probed with a GAPDH antibody. The relative expression level of unprocessed to processed Ras was quantified by densitometry. The experiments were conducted three times. […]
FIG. 3A-C show illustrative effective results of Compound 1 inhibiting the prenylation activity of farnesyltransferase in vitro and competes with FPP within cells. […] The relative expression level of unprocessed to processed Ras was quantified by densitometry. […]
Sixty micrograms of total protein lysates measured using a Bradford assay (Sigma-Aldrich, St. Louis, Mo., USA) were resolved on 12.5% SDS-polyacrylamide gels. […] Secondary antibodies were conjugated to horseradish peroxidase, which was detected using a 3,3′-diaminobenzidine substrate kit (Vector Laboratories, Burlingame, Calif.). The immunoreactive bands were quantified by densitometry using Image-Pro Plus software (Media Cybernetics, Silver Spring, Md.). […]

| IC50 ([1]; Homo sapiens, NCI-H838, 48 h) [µM] | IC50 [2] [µM] | IC50 [3] [µM] | IC50 [4] [µM] | Structure (SMILES) | other results |
| --- | --- | --- | --- | --- | --- |
| 25.6 ± 6.54 | 9.06 ± 3.03 | 22.6 ± 2.24 | 27 ± 6.06 | COC1=C(OCc2ccccc2)C(=O)C(C)C(C/C=C(\C)CC/C=C(\C)CCC=C(C)C)C1O (centres unmarked) [Compound 30] | – |
| > 100 | – | – | – | COC1=C(OC)C(O)C(C/C=C(\C)CCC(=O)O)C(C)C1=O (centres unmarked) [Compound 27] | – |
| > 100 | – | – | – | COC1=C(OC)C(OC(C)=O)C(C/C=C(\C)CC/C=C(\C)CCC=C(C)C)C(C)C1=O (centres unmarked) [Compound 29] | – |
| 3.32 | 3.74 | 3.24 | 6.42 | COC1=C(OC)C(O)C(C/C=C(\C)CC/C=C(\C)CCC=C(C)C)C(C)C1=O (centres unmarked) [Compound 1, 4-hydroxy-2,3-dimethoxy-6-methyl-5-(3,7,11-trimethyldodeca-2,6,10-trienyl)cyclohex-2-enone] | IC50 [1]: 2.96 ± 0.05 µM; IC50 [5]: 2.22 µM; IC50 [6]: 5.12 µM |
| – | – | – | – | CC(C)=CCC/C(C)=C/CC/C(C)=C/COP(=O)(O)OP(=O)(O)O [FPP, farnesyl pyrophosphate] | concentration of FPP that neutralized the effect of Compound 1 on Ras processing [7]: ≥ 10 µM |
| 3.41 ± 1.43 | 7.46 ± 7.06 | 6.68 ± 0.75 | 8.98 ± 0.97 | COC1=C(OCc2ccccc2)C(O)C(C/C=C(\C)CC/C=C(\C)CCC=C(C)C)C(C)C1=O (centres unmarked) [Compound 31] | – |
| 11.3 ± 4.17 | – | – | – | COC1=CC(O)C(C/C=C(\C)CC/C=C(\C)CCC=C(C)C)C(C)C1=O (centres unmarked) [Compound 26, 4-hydroxy-2-methoxy-6-methyl-5-((2E,6E)-3,7,11-trimethyldodeca-2,6,10-trienyl)cyclohex-2-enone] | – |
| > 100 | – | – | – | COC1=C(OC)C(OC(C)=O)C(C/C=C(\C)CC/C=C(\C)CC2CC(C)C(=O)O2)C(C)C1=O (centres unmarked) [Compound 28] | – |
